What was measured:
[1] = target: T1, Hsc70 and DJA2 (Homo sapiens, UniProt P11142); assay: Luciferase refolding by Hsc70 and DJA2; assay type: biochemical; details: 30° C.
T1 construct: made in house
Description: FIG. 6. YK5 inhibits core biochemical functions of Hsp70s and disrupts the Hsp90/Hsp70 interaction. a) Refolding of denatured luciferase by Hsc70 and DJA2 at 30° C. was measured for the indicated times in the presence of YK5 (100 μM) or vehicle (left), or at 60 min in the presence of indicated concentrations of YK5 (right). b) Hsc70 ATPase rates were measured for reactions at 30° C. with the indicated combinations of Hsc70 and co-chaperones in the presence of vehicle (DMSO) or YK5 (100 μM). ADP production was monitored by thin layer chromatography separation of radiolabeled ADP from ATP and phosphorimaging analysis (lower). […] Proteins isolated with anti-Hsp90 and Hsp70s antibodies (IP: Hsp90 or Hsp70), or present in the cell extract (Lysate) were analyzed by WB. […] Proteins were applied to a native gel and analyzed by immunoblotting. […]
Hsc70 ATPase Activity and Luciferase Refolding. Human Hsc70, DJA1/DNAJA1, DJA2/DNAJA2 and Hsp110/Hsp105/HSPH1 were purified and analyzed. […] Samples at time points were terminated with 37.5 mM EDTA and analyzed by thin layer chromatography on polyethylene-imine cellulose (Mallinckrodt Baker) developed in 0.5 M LiCl and 0.5 M formic acid. The ADP produced was determined by image phosphor quantitation and the linear enzymatic rates (Vmax) were calculated by regression analysis. […]

[2] = system: Kasumi-1 cells; assay: Apoptosis, acridine orange/ethidium bromide, Kasumi-1; assay type: cell-based, human; details: 10 μM, 24 h
Description: FIG. 13. YK5 has a higher apoptotic effect than Hsp90 inhibitors in select tumors. (a-d) Cells were treated with the indicated concentrations of inhibitors for the times presented. (a,b) Apoptotic cells were quantified by dual acridine orange/ethidium bromide staining as described in Methods. (c,d) Molecular markers of apoptosis (PARP cleavage) were analyzed in cells treated for 24 h with indicated concentrations of inhibitors (c) or for the indicated times with the indicated concentration of inhibitors (d) by western blotting. (e) MDAMB-468 cells were treated with vehicle, TNFα (20 ng/ml), YK5 (1 μM), pretreated with YK5 for 2 h before TNFα or co-treated, and cells were lysed for western blot analysis (left), or cell death was quantified by analyzing the hypodiploid population upon propidium iodine staining (right). […]
To determine whether cell death by YK5 was attributable to apoptosis, cells were treated with YK5 and effects on morphology, as well as on several effectors and mediators of apoptosis were analyzed (FIG. 13). To quantify the number of cells undergoing apoptosis, cells were stained with acridine orange/ethidium bromide (AO/EB) and analyzed under a fluorescence microscope for the percentage of viable, apoptotic (early and late) and necrotic cells. […]
Apoptosis-Acridine Orange/Ethidium Bromide. […] Percentage of apoptotic cells was determined from 200-300 cells counted in each group.

T1 sequence (P11142 whole entry): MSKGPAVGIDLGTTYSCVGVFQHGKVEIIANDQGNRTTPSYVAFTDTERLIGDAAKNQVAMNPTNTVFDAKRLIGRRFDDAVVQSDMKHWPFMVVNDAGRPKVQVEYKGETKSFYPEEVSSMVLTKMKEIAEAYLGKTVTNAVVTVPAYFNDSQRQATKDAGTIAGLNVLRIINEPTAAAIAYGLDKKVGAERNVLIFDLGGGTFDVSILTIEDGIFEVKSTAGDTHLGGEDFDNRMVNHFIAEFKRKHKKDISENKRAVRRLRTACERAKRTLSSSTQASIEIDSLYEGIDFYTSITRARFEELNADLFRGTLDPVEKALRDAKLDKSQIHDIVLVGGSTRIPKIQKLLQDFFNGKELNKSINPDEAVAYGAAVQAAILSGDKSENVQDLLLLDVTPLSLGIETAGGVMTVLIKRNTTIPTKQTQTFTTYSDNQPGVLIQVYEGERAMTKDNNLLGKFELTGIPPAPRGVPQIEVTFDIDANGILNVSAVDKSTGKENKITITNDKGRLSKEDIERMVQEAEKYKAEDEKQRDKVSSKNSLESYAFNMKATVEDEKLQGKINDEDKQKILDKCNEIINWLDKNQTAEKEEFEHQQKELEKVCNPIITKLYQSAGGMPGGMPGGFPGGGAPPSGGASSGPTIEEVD

## C=CC(=O)Nc1cc(N)nc(Sc2c(OC)nc(N3CCN(C)CC3)nc2OC)n1 [YK5, N-(6-amino-2-(4,6-dimethoxy-2-(4-methylpiperazin-1-yl)pyrimidin-5-ylthio)pyrimidin-4-yl)acrylamide]
[1]
  refolding of luciferase by purified Hsc70 and DJA2: dose-dependently inhibited the refolding of luciferase
[2]
  cells undergoing apoptosis: 70%

From US9567318B2, “Substituted pyrimidine compounds and uses thereof” (Memorial Sloan-Kettering Cancer Center, priority 2009, dated 2017)
